Values joined by “and” are separate entries in the source; they are usually repeats but may differ in a detail not shown here. Identical values can stand only once. Active and inactive are the calls of the source. The rule behind the calls is not given here.
Tested on: not listed separately
Test: fungal lysis by compounds in C. neoformans – plate reader, dry powder, set 2, dose response (AID 743305)
Details: Cryptococcus neoformans cell lysis, plate reader; at 35 µM (top of the series)

SMILES	activity change, negative = lysis
c1ccc(-c2ccc(OCCn3cnc4ccccc43)cc2)cc1	-7.29% (inactive)
O=S(=O)(c1ccc(OCCn2cnc3ccccc32)cc1)N1CCOCC1	-16.9% (inactive)
COc1ccc(OCCn2cnc3ccccc32)cc1	-13.3% (inactive)
COc1ccccc1OCCn1c(=S)[nH]c2ccccc21	-5.77% (inactive)
OCc1nc2ccccc2n1CCOc1ccccc1	-11.6% (inactive)
CS(=O)(=O)c1ccc(OCCn2cnc3ccccc32)cc1	-6.3% (inactive)
CCc1nc2ccccc2n1CCOc1ccccc1	-12.5% (inactive)

Tested on: Cryptococcus neoformans cell lysis, plate reader
Test: as above
Details: not given

SMILES	AC50
CC(C)c1ccccc1OCCn1c(=S)[nH]c2ccccc21	4.7 µM
Cc1ccc(C(C)C)c(OCCn2c(=O)[nH]c3ccccc32)c1	> 70 µM (inactive)
Fc1cccc2c1[nH]c(=S)n2CCOc1ccccc1	13.9 µM
Cc1cc2ncn(CCOc3ccccc3)c2cc1C	14.9 µM
Cc1cc2ncn(CCOc3ccc4c(c3)CCC4)c2cc1C	3.63 µM
Clc1ccc(OCCn2cnc3ccccc32)cc1	29 µM
CC(C)c1ccccc1NCCn1c(=S)[nH]c2ccccc21	> 70 µM (inactive)
Cc1cccc(OCCn2cnc3ccccc32)c1	34.1 µM
Cc1cccc(OCCn2c(=S)[nH]c3ccc(C(F)(F)F)cc32)c1	> 70 µM (inactive)
S=c1[nH]c2cccc(Cl)c2n1CCOc1ccccc1	2.95 µM
c1ccc2c(c1)ncn2CCOc1ccc2c(c1)CCC2	3.3 µM
CCSc1nc2ccccc2n1CCOc1ccccc1	35 µM
CC(C)Oc1ccc(OCCn2c(=S)[nH]c3ccccc32)cc1	12.1 µM
CC(C)Oc1ccc(OCCn2cnc3ccccc32)cc1	24.3 µM
CCCc1nc2ccccc2n1CCOc1ccccc1	35.7 µM
Cc1cccc(OCCn2c(=S)[nH]c3ccccc32)c1	8.47 µM
CC(C)Oc1cccc(OCCn2cnc3ccccc32)c1	13.3 µM
CC(C)(C)c1ccc(OCCn2cnc3ccccc32)cc1	11 µM
Cc1ccc(OCCn2cnc3ccccc32)c(C(C)C)c1	32.8 µM
FC(F)(F)c1cccc(OCCn2cnc3ccccc32)c1	29.7 µM
Cc1ccc(C(C)C)c(OCCn2c(N)nc3ccccc32)c1	21.9 µM

SMILES	AC50
CSc1nc2ccccc2n1CCOc1ccc(C)cc1	17.7 µM
Cc1ccc(OCCn2cnc3cc(C)c(C)cc32)cc1	5.54 µM
Cc1cc2ncn(CCOc3ccccc3C)c2cc1C	8.4 µM
Cc1ccc2c(c1)[nH]c(=S)n2CCOc1ccccc1	7.79 µM
Fc1ccc2c(c1)[nH]c(=S)n2CCOc1ccccc1	12.4 µM and 15.5 µM
S=c1[nH]c2cc(Cl)ccc2n1CCOc1ccccc1	36 µM
Cc1ccc(OCCn2cnc3ccccc32)c(C)c1	14.6 µM
CCCCc1nc2ccccc2n1CCOc1ccccc1	24.3 µM
Cc1ccc(C(C)C)c(OCCn2c(=S)[nH]c3ccccc32)c1	3.96 µM
Cc1ccc(C(C)C)c(OCCn2c(NC#N)nc3ccccc32)c1	> 70 µM (inactive)
NCC(=O)Nc1ccc(-n2nc(C(F)(F)F)cc2-c2ccc3c(ccc4ccccc43)c2)cc1	10.7 µM
c1ccc(COc2ccc(OCCn3cnc4ccccc43)cc2)cc1	24.4 µM
Cc1cccc(OCCn2c(=S)[nH]c3c(F)cccc32)c1	8.18 µM and 7.2 µM
CC(C)(C)c1ccc(OCCn2cnc3ccccc32)c(Cl)c1	10.1 µM
Cc1ccc(C(C)C)c(OCCn2c(CO)nc3ccccc32)c1	> 70 µM (inactive)
COCc1nc2ccccc2n1CCOc1ccc(C(C)(C)C)cc1	28.6 µM
Clc1ccc(OCCn2cnc3ccccc32)c(Cl)c1	11.8 µM
Fc1ccc(OCCn2c(=S)[nH]c3ccccc32)cc1	36.6 µM
CSc1nc2ccccc2n1CCOc1ccccc1	29.5 µM
Cc1cccc(OCCn2c(=S)[nH]c3cc(F)ccc32)c1	6.33 µM and 6 µM
